US20260226019A1, “NEGATIVE ALLOSTERIC MODULATORS OF METABOTROPIC GLUTAMATE RECEPTOR 2” (Vanderbilt University, priority 2023, published 2026)

Molecular target: T1, human mGlu2 (Homo sapiens, UniProt Q14416)
T1 construct: expressed in transfected cells; host or cells: HEK-293 stably co-expressing GIRK channels
Test: mGlu GIRK cell-based thallium flux assay, human mGlu2
Conditions: HEK-293 cells co-expressing human mGlu2 and GIRK, EC80 glutamate, single experiment
Procedure: Human embryonic kidney (HEK-293) cell lines stably co-expressing human or rat mGlu2 and G protein-coupled inwardly rectifying potassium (GIRK) channels, or human mGlu3 and GIRK, were used for in vitro evaluation of compound activity in thallium flux assay using a fluorescent thallium indicator dye.
The day before the assay, GIRK cells co-expressing human mGlu3, human or rat mGlu2, as described above, were plated in black-walled, clear-bottomed, amine-coated 384-well plates at a density of 15,000 cells/[…]/well in the assay medium (glutamine-depleted basal DMEM supplemented with 10% dialyzed FBS, 20 mM HEPES, 1 mM sodium pyruvate). Cells were incubated at 37° C. in the presence of 5% CO2. The next day, assay buffer (Hanks balanced salt solution, 20 mM HEPES, 4.16 mM sodium bicarbonate, pH 7.2) was prepared to dilute compounds and Thallos AM fluorescent dye solution. The 2× Thallos dye solution (final concentration 0.34 μM to the cells) was prepared by mixing the dye stock (2.97 mM in DMSO) to 1:1 with 10% pluronic acid before adding to the assay buffer. Cells were washed with assay buffer using a microplate washer to remove the medium, resulting in 20 μL of buffer remaining in each well. […] During the cell dye loading incubation period, a 10-point concentration serial dilution of compound was created from a 10 mM DMSO compound stock by performing a 1:3 serial dilution in DMSO using the Bravo liquid handler. The 2× compound plate was generated by transferring 0.24 μL of the diluted compound in each well to a daughter plate using an Echo acoustic liquid handler. This is further diluted in 40 μL assay buffer, resulting in a range from […] to 1.5 nM final concentration in the assay. The agonist plate (5×) was prepared to include EC80 glutamate concentration (a concentration to elicit 80% of a maximally effective glutamate concentration) in thallium buffer (125 mM sodium bicarbonate, 1 mM magnesium sulfate, 1.8 mM calcium sulfate, 5 mM glucose, 10 mM HEPES, pH 7.2, 12.5 mM thallium sulfate).
After dye-loading, cell plates were washed with assay buffer to remove excess extracellular dye using a microplate washer, resulting in 20 μL of buffer remaining in each well. After a ten-minute equilibration period, cell, compound and agonist plates were loaded into a Hamamatsu μCell kinetic imaging plate reader equipped with liquid handler to monitor fluorescence changes at 480 nm excitation and 540 nm emission settings. Briefly, after collection of baseline fluorescence, 20 μL of compound was added and incubated for two minutes and twenty seconds. This is immediately followed by adding 10 μL of glutamate-thallium buffer to the wells containing compound. The fluorescent signal was monitored an additional 2.5 minutes after the glutamate addition. Multiple reference wells containing no compound received either no glutamate (for a baseline reference), EC80 glutamate, or ECmax glutamate (for normalization to maximum response). […] Each compound concentration series occurred one time in each plate, and replicates from two or three plates were used in each experimental run. Thallium solutions were handled and disposed of according to guidelines from the Vanderbilt University Chemical Safety department.
Data were normalized using a static ratio function (F/F0) by dividing every fluorescent measurement by the initial fluorescent value for the corresponding well. The increase in signal resulting from the glutamate/thallium addition of the second add was measured by determining the slope from 3 seconds to 13 seconds after the addition. The average of all baseline slopes (no compound, no glutamate) was determined and this value was subtracted from all other slope values. The average of all ECmax slopes was determined and this value was used to normalize the baseline-corrected slopes to a percent max value (% Emax).

T1 sequence (Q14416 19-872): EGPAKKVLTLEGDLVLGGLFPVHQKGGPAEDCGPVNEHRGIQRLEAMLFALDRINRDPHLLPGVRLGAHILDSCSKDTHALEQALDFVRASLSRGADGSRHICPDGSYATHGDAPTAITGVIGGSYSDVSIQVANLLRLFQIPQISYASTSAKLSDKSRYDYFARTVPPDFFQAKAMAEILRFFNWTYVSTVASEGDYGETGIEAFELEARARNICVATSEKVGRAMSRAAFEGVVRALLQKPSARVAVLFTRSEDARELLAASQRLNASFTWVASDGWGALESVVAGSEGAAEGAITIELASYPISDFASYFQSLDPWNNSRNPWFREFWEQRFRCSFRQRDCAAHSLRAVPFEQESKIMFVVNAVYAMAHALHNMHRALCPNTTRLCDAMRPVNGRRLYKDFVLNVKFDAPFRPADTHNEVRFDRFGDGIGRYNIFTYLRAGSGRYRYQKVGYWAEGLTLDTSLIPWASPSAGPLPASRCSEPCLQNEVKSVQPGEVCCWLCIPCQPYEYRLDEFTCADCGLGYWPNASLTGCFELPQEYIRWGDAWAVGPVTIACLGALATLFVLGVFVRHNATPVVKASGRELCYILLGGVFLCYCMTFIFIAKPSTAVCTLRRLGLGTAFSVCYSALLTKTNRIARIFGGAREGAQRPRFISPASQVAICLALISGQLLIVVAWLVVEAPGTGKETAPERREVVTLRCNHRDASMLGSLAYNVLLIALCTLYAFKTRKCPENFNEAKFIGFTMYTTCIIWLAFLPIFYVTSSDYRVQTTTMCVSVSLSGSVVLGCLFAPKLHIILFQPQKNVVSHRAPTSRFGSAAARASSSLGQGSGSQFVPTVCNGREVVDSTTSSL

| SMILES | Human mGlu2 GIRK IC50 (nM) | IC50 [nM] |
| --- | --- | --- |
| O=C1NCc2c1cc(-c1ccc(F)cc1F)cc2-c1ccco1 [Compound 29, 6-(2,4-difluorophenyl)-4-(furan-2-yl)isoindolin-1-one] | Inactive | – |
| O=C1NCc2c1cc(-c1c(F)cc(F)cc1F)cc2-c1cnsc1 [Compound 45, 4-(isothiazol-4-yl)-6-(2,4,6-trifluorophenyl)isoindolin-1-one] | – | 2070 |
| Cc1sc(C)c(-c2cc(-c3ccc(F)cc3F)cc3c2CNC3=O)c1C [Compound 20, 6-(2,4-difluorophenyl)-4-(2,4,5-trimethylthiophen-3-yl)isoindolin-1-one] | – | 5260 |
| O=C1NCc2c1cc(-c1ccc(F)cc1F)cc2-c1ccc2nccnc2c1 [Compound 27, 6-(2,4-difluorophenyl)-4-(quinoxalin-6-yl)isoindolin-1-one] | – | 1830 |
| N#Cc1ccc(-c2cc3c(c(-c4cnsc4)c2)CNC3=O)c(F)c1 [Compound 43, 3-fluoro-4-(7-(isothiazol-4-yl)-3-oxoisoindolin-5-yl)benzonitrile] | – | 5070 |
| O=C1NCc2c1cc(-c1ccc(F)cc1F)cc2-c1cncnc1 [Compound 37, 6-(2,4-difluorophenyl)-4-(pyrimidin-5-yl)isoindolin-1-one] | – | 950 |
| Cc1cc(-c2cc3c(c(-c4cnsc4)c2)CNC3=O)c(F)cc1C#N [Compound 51, 5-fluoro-4-(7-(isothiazol-4-yl)-3-oxoisoindolin-5-yl)-2-methylbenzonitrile] | Inactive | – |
| N#Cc1c(F)cc(-c2cc3c(c(-c4cnsc4)c2)CNC3=O)cc1F [Compound 57, 2,6-difluoro-4-(7-(isothiazol-4-yl)-3-oxoisoindolin-5-yl)benzonitrile] | Inactive | – |
| CCOc1ccc(-c2cc3c(c(-c4cnsc4)c2)CNC3=O)c(F)c1F [Compound 54, 6-(4-ethoxy-2,3-difluorophenyl)-4-(isothiazol-4-yl)isoindolin-1-one] | – | > 10000 |
| O=C1NCc2c1cc(-c1ccc(F)cc1F)cc2-c1ccc(F)cc1F [Compound 4, 4,6-bis(2,4-difluorophenyl)isoindolin-1-one] | – | 2070 |
| COc1cc(F)c(-c2cc3c(c(-c4cnsc4)c2)CNC3=O)cc1F [Compound 52, 6-(2,5-difluoro-4-methoxyphenyl)-4-(isothiazol-4-yl)isoindolin-1-one] | Inactive | – |
| O=C1NCc2c1cc(-c1ccc(F)cc1F)cc2-c1cnn(C2CCCC2)c1 [Compound 16, 4-(1-cyclopentyl-1H-pyrazol-4-yl)-6-(2,4-difluorophenyl)isoindolin-1-one] | – | 3170 |
| COc1ccc(-c2cc3c(c(-c4cnsc4)c2)CNC3=O)c(F)c1 [Compound 44, 6-(2-fluoro-4-methoxyphenyl)-4-(isothiazol-4-yl)isoindolin-1-one] | – | 3560 |
| N#Cc1ccc(-c2cc(-c3ccc(F)cc3F)cc3c2CNC3=O)cn1 [Compound 33, 5-(6-(2,4-difluorophenyl)-1-oxoisoindolin-4-yl)picolinonitrile] | – | 1540 |
| O=C1NCc2c1cc(-c1ccc(OC(F)F)cc1F)cc2-c1cnsc1 [Compound 46, 6-(4-(difluoromethoxy)-2-fluorophenyl)-4-(isothiazol-4-yl)isoindolin-1-one] | – | > 10000 |
| O=C1NCc2c1cc(-c1ccc(F)cc1F)cc2-c1ccc2ncccc2c1 [Compound 24, 6-(2,4-difluorophenyl)-4-(quinolin-6-yl)isoindolin-1-one] | – | 1660 |
| O=C1NCc2c1cc(-c1ccc(F)cc1F)cc2-c1ccnnc1 [Compound 12, 6-(2,4-difluorophenyl)-4-(pyridazin-4-yl)isoindolin-1-one] | – | 1120 |
| O=C1NCc2c1cc(-c1ccc(F)cc1F)cc2-c1ccc2cnccc2c1 [Compound 23, 6-(2,4-difluorophenyl)-4-(isoquinolin-6-yl)isoindolin-1-one] | – | 1380 |
| O=C1NCc2c1cc(-c1ccc(F)cc1F)cc2-c1ccsc1 [Compound 15, 6-(2,4-difluorophenyl)-4-(thiophen-3-yl)isoindolin-1-one] | – | 3230 |
| O=Cc1ccc(-c2cc3c(c(-c4cnsc4)c2)CNC3=O)c(F)c1F [Compound 58, 2,3-difluoro-4-(7-(isothiazol-4-yl)-3-oxoisoindolin-5-yl)benzaldehyde] | – | > 10000 |
| O=C1NCc2c1cc(-c1ccc(F)cc1F)cc2-c1cnn(C2CCC2)c1 [Compound 17, 4-(1-cyclobutyl-1H-pyrazol-4-yl)-6-(2,4-difluorophenyl)isoindolin-1-one] | – | 2560 |

Continued, values first:

| Human mGlu2 GIRK IC50 (nM) | IC50 [nM] | SMILES |
| --- | --- | --- |
| – | 433 | COc1cc(-c2cc(-c3ccc(F)cc3F)cc3c2CNC3=O)cc(C)n1 [Compound 91, 6-(2,4-difluorophenyl)-4-(2-methoxy-6-methylpyridin-4-yl)isoindolin-1-one] |
| – | 292 | O=C1NCc2c(CN3CC4CCC(C3)O4)cc(-c3ccc(F)cc3F)cc21 [Compound B7, 4-((8-oxa-3-azabicyclo[3.2.1]octan-3-yl)methyl)-6-(2,4-difluorophenyl)isoindolin-1-one] |
| – | 1190 | Cc1cc(-c2cc3c(c(-c4cnsc4)c2)CNC3=O)c(F)cn1 [Compound 61, 6-(5-fluoro-2-methylpyridin-4-yl)-4-(isothiazol-4-yl)isoindolin-1-one] |
| – | 303 | O=C1NCc2c1cc(-c1ccc(F)cc1F)cc2-c1ccnc(C(F)(F)F)c1 [Compound 90, 6-(2,4-difluorophenyl)-4-(2-(trifluoromethyl)pyridin-4-yl)isoindolin-1-one] |
| – | 985 | Cc1nn(C)c(C)c1-c1cc(C2CCOCC2)cc2c1CNC2=O [Compound 98, 6-(tetrahydro-2H-pyran-4-yl)-4-(1,3,5-trimethyl-1H-pyrazol-4-yl)isoindolin-1-one] |
| – | 286 | O=C1CC2(CN1)CN(c1cc(-c3ccc(F)cc3F)cc3c1CNC3=O)C2 [Compound A20, 6-(2,4-difluorophenyl)-4-(7-oxo-2,6-diazaspiro[3.4]octan-2-yl)isoindolin-1-one] |
| – | 323 | CCn1nccc1-c1cc(C2=CCOCC2)cc2c1CNC2=O [Compound 95, 6-(3,6-dihydro-2H-pyran-4-yl)-4-(1-ethyl-1H-pyrazol-5-yl)isoindolin-1-one] |
| – | 258 | Cc1c(-c2cc(C3=CCOCC3)cc3c2CNC3=O)cnn1C [Compound 93, 6-(3,6-dihydro-2H-pyran-4-yl)-4-(1,5-dimethyl-1H-pyrazol-4-yl)isoindolin-1-one] |
| – | 306 | O=C1NCc2c1cc(-c1ccc(F)cc1F)cc2N1C[C@H]2C[C@@H]1CO2 (racemic) [Compound A21, rac-4-((1R,4R)-2-oxa-5-azabicyclo[2.2.1]heptan-5-yl)-6-(2,4-difluorophenyl)isoindolin-1-one] |
| – | 1220 | O=C1NCc2c1cc(-c1ccc(F)cc1F)cc2N1CC(O)(C(F)(F)F)C1 [Compound A19, 6-(2,4-difluorophenyl)-4-(3-hydroxy-3-(trifluoromethyl)azetidin-1-yl)isoindolin-1-one] |
| – | 1700 | CC(C)n1nccc1-c1cc(C2CCOCC2)cc2c1CNC2=O [Compound 88, 4-(1-isopropyl-1H-pyrazol-5-yl)-6-(tetrahydro-2H-pyran-4-yl)isoindolin-1-one] |
| – | 329 | O=C1NCc2c1cc(-c1ccc(F)cc1F)cc2C1CCCCO1 (centres unmarked) [Compound B10, 6-(2,4-difluorophenyl)-4-(tetrahydro-2H-pyran-2-yl)isoindolin-1-one] |
| – | > 10000 | Cn1cc2c(n1)CN(c1cc(-c3ccc(F)cc3F)cc3c1CNC3=O)C2 [Compound A22, 6-(2,4-difluorophenyl)-4-(2-methyl-2,6-dihydropyrrolo[3,4-c]pyrazol-5(4H)-yl)isoindolin-1-one] |
| – | 195 | Cc1ncccc1-c1cc(C2=CCOCC2)cc2c1CNC2=O [Compound 97, 6-(3,6-dihydro-2H-pyran-4-yl)-4-(2-methylpyridin-3-yl)isoindolin-1-one] |
